Source: ChEMBL document CHEMBL5214935, “Discovery of a potent M5 antagonist with improved clearance profile. Part 1: Piperidine amide-based antagonists” (Bioorg Med Chem Lett, 2022)
Positions count from the first letter of the chain named.

Experiments:
[1] = target: T1, Muscarinic acetylcholine receptor M5 (Homo sapiens) (UniProt P08912); test: Antagonist activity at human muscarinic M5 receptor expressed in CHO cells assessed as minimal acetylcholine response by calcium mobilisation assay relative to control; format: functional, cell-based; design: concentration or dose not given beside the values
T1 sequence (whole entry): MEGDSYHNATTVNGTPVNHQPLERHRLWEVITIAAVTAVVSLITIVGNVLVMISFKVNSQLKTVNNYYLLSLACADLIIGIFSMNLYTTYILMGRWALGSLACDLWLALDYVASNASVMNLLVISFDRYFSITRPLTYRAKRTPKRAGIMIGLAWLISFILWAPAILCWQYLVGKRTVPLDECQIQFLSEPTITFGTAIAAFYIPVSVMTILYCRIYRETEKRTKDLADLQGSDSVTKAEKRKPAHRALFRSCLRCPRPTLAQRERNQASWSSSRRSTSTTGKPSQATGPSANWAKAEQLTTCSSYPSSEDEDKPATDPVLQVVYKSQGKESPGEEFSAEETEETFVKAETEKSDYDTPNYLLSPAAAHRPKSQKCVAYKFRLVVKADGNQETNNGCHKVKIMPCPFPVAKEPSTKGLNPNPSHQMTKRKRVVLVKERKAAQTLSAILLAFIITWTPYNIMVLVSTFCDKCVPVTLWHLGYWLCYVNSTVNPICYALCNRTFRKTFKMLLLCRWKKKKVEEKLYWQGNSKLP

[2] = Intrinsic clearance in human; format: ADME
[3] = Intrinsic clearance in rat; format: ADME
[4] = target: T2, Muscarinic acetylcholine receptor M5 (Homo sapiens, UniProt P08912); test: Antagonist activity at human muscarinic M5 receptor expressed in CHO cells in the presence of acetylcholine by calcium mobilisation assay; format: functional, cell-based
T2 sequence (P08912 whole entry): T1 sequence (whole entry)

[5] = target: T3, Muscarinic acetylcholine receptor M5 (Rattus norvegicus, UniProt P08911); test: Antagonist activity at rat muscarinic M5 receptor; format: functional
T3 sequence (P08911 whole entry): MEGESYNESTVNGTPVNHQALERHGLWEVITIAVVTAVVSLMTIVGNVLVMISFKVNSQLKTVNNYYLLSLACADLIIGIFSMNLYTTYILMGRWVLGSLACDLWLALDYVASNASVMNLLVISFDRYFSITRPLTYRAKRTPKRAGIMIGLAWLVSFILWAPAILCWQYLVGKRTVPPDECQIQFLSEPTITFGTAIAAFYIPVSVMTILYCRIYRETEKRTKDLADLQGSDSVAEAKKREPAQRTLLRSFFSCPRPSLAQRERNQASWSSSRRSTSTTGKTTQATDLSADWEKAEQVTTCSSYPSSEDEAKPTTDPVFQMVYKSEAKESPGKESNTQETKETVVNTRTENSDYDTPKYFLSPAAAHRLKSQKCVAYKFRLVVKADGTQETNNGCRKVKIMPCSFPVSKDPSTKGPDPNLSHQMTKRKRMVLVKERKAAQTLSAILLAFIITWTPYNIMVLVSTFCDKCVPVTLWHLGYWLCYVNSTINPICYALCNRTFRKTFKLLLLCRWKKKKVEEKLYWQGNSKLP

[6] = target: T4, Muscarinic acetylcholine receptor M1 (Homo sapiens, UniProt P11229); test: Antagonist activity at human muscarinic M1 receptor; format: functional
T4 sequence (P11229 whole entry): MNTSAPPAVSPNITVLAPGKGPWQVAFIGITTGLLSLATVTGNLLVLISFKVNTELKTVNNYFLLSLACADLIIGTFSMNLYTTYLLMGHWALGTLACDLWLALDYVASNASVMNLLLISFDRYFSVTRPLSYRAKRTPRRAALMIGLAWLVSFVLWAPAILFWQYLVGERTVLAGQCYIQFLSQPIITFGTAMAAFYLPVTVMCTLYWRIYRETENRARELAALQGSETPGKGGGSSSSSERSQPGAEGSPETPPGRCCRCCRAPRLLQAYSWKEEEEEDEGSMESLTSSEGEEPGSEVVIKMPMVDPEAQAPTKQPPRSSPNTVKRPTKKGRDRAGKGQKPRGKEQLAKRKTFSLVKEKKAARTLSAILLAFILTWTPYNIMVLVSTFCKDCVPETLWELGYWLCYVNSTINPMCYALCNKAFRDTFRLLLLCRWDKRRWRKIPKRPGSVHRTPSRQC

[7] = target: T5, Muscarinic acetylcholine receptor M5 (Rattus norvegicus) (UniProt P08911); test: Antagonist activity at rat muscarinic M5 receptor assessed as minimal acetylcholine response relative to control; format: functional; design: scale not given: the % may be the effect or the level left; settings: filed as antagonist
T5 sequence (whole entry): T3 sequence (P08911 whole entry)

[8] = target: T4, Muscarinic acetylcholine receptor M1; test: Antagonist activity at human muscarinic M1 receptor expressed in CHO cells in the presence of acetylcholine by calcium mobilisation assay; format: functional, cell-based
[9] = target: T6, Muscarinic acetylcholine receptor M1 (Homo sapiens) (UniProt P11229); test: Antagonist activity at human muscarinic M1 receptor expressed in CHO cells assessed as minimal acetylcholine response by calcium mobilisation assay; format: functional, cell-based; design: scale not given: the % may be the effect or the level left
T6 sequence (whole entry): T4 sequence (P11229 whole entry)

[10] = Unbound fraction in rat plasma; format: ADME, cell-free
[11] = Unbound fraction in human plasma; format: ADME, cell-free
[12] = Unbound fraction in rat brain; format: ADME, tissue-based
[13] = tested on: P-glycoprotein (human); test: Efflux ratio of permeability in MDCK-MDR1 cells expressing human P-glycoprotein; format: ADME, cell-based, Canis lupus familiaris; settings: dog
[14] = Apparent permeability in MDCK-MDR1 cells; format: ADME, cell-based, Canis lupus familiaris; settings: dog
[15] = target: T7, Muscarinic acetylcholine receptor M1 (Rattus norvegicus) (UniProt P08482); test: Antagonist activity at rat muscarinic M1 receptor expressed in CHO cells assessed as minimal acetylcholine response by calcium mobilisation assay relative to control; format: functional, cell-based; design: scale not given: the % may be the effect or the level left; settings: filed as antagonist
T7 sequence (whole entry): T4 sequence (P11229 whole entry) with A5V, T254S, P309S, R320K, A337G, I413V

[16] = target: T8, Muscarinic acetylcholine receptor M1 (Rattus norvegicus, UniProt P08482); test: Antagonist activity at rat muscarinic M1 receptor expressed in CHO cells in the presence of acetylcholine by calcium mobilisation assay; format: functional, cell-based
T8 sequence (P08482 whole entry): T4 sequence (P11229 whole entry) with A5V, T254S, P309S, R320K, A337G, I413V

[17] = Clearance in rat plasma; format: ADME, cell-free
[18] = Volume of distribution at steady state in rat; format: ADME; settings: in vivo, read-out: Vdss
[19] = Elimination half life in rat; format: ADME; settings: in vivo, read-out: beta t1/2

Compound: O=C(Nc1ccc2cccnc2c1)C1CCN(S(=O)(=O)c2ccc3c(c2)CCO3)CC1
- Activity ([1]; filed as antagonist): 3%
- CLint scaled [2]: 99 mL/min/kg
- CLint scaled [3]: 740 mL/min/kg

Compound: O=C(Nc1ccc2scnc2c1)C1CCN(S(=O)(=O)c2ccc3ncsc3c2)CC1
- IC50 [4]: 266 nM
- Activity ([1]; filed as antagonist): 2%
- CLint scaled [2]: 36 mL/min/kg
- CLint scaled [3]: 81 mL/min/kg

Compound: Cc1ccc(S(=O)(=O)N2CCC(C(=O)Nc3ccc4scnc4c3)CC2)cn1
- Activity ([1]; filed as antagonist): 3%
- CLint scaled [2]: 5 mL/min/kg
- CLint scaled [3]: 43 mL/min/kg

Compound: O=C(Nc1ccc2scnc2c1)C1CCN(S(=O)(=O)c2cccnc2)CC1
- IC50 [4]: 59 nM
- Activity ([1]; filed as antagonist): 2%
- CLint scaled [2]: 19 mL/min/kg
- CLint scaled [3]: 207 mL/min/kg

Compound: CN(C(=O)C1CCN(S(=O)(=O)c2ccc3c(c2)CCO3)CC1)c1ccc2scnc2c1
- Activity [1]: 51%

Compound: C[C@@H]1C[C@H](C(=O)Nc2ccc3scnc3c2)CCN1S(=O)(=O)c1ccc2c(c1)CCO2 (racemic)
- IC50 [4]: 134 nM
- Activity ([1]; filed as antagonist): 2%
- CLint scaled [2]: 264 mL/min/kg
- CLint scaled [3]: 572 mL/min/kg

Compound: O=C(Nc1ccc2scnc2c1)C1CCN(S(=O)(=O)c2ccc3c(c2)CCO3)CC1
- CLint scaled [3]: 373 mL/min/kg
- IC50 [5]: 249 nM
- IC50 [6]: 2140 nM

Compound: Cc1nn(C)cc1S(=O)(=O)N1CC[C@H](C(=O)Nc2ccc3scnc3c2)[C@@H](F)C1 (racemic)
- IC50 [4]: 309 nM
- Activity ([1]; filed as antagonist): 3%
- CLint scaled [2]: 7 mL/min/kg
- CLint scaled [3]: 260 mL/min/kg
- IC50 [5]: 572 nM
- Activity [7]: 3%
- IC50 [8]: > 10 µM
- Activity [9]: 51%
- Fu [10]: 0.02
- Fu [11]: 0.26
- fraction unbound [12]: 0.17
- efflux ratio [13]: 110
- Papp [14]: 0.431 10^-6 cm/s

Compound: Cc1ncc(S(=O)(=O)N2CC[C@H](C(=O)Nc3ccc4scnc4c3)[C@@H](F)C2)s1 (racemic)
- Activity [15]: 3%
- IC50 [4]: 13 nM
- Activity ([1]; filed as antagonist): 2%
- CLint scaled [2]: 6 mL/min/kg
- CLint scaled [3]: 81 mL/min/kg
- IC50 [16]: 300 nM
- Fu [10]: 0.007
- Fu [11]: 0.02
- fraction unbound [12]: 0.06

Compound: Cn1ncc(S(=O)(=O)N2CC[C@H](C(=O)Nc3ccc4scnc4c3)[C@@H](F)C2)c1Cl (racemic)
- Activity [15]: 3%
- IC50 [4]: 10 nM
- Activity ([1]; filed as antagonist): 2%
- CLint scaled [2]: 6 mL/min/kg
- CLint scaled [3]: 49 mL/min/kg
- IC50 [16]: 110 nM
- Fu [10]: 0.005
- Fu [11]: 0.02
- fraction unbound [12]: 0.05

Compound: O=C(Nc1ccc2scnc2c1)C1CCN(S(=O)(=O)c2ccc(Cl)nc2)CC1
- IC50 [4]: 168 nM
- Activity ([1]; filed as antagonist): 3%
- CLint scaled [2]: 21 mL/min/kg
- CLint scaled [3]: 62 mL/min/kg

Compound: Cc1nc2cc(NC(=O)C3CCN(S(=O)(=O)c4ccc5c(c4)CCO5)CC3)ccc2s1
- IC50 [4]: 594 nM
- Activity ([1]; filed as antagonist): 19%
- CLint scaled [2]: 74 mL/min/kg
- CLint scaled [3]: 426 mL/min/kg

Compound: O=C(Nc1ccc2scnc2c1)C1CCN(S(=O)(=O)c2ccc(Cl)s2)CC1
- IC50 [4]: 2800 nM
- IC50 [6]: > 10000 nM

Compound: C[C@@H]1C[C@@H](C(=O)Nc2ccc3scnc3c2)CCN1S(=O)(=O)c1ccc2c(c1)CCO2 (racemic)
- IC50 [4]: 94 nM
- Activity ([1]; filed as antagonist): 3%
- CLint scaled [2]: 114 mL/min/kg
- CLint scaled [3]: 520 mL/min/kg

Compound: O=C(Nc1ccc2scnc2c1)C1CCN(S(=O)(=O)c2ccc3ncccc3c2)CC1
- Activity ([1]; filed as antagonist): 2%
- CLint scaled [2]: 20 mL/min/kg
- CLint scaled [3]: 212 mL/min/kg

Compound: C[C@@H]1CN(S(=O)(=O)c2ccc3c(c2)CCO3)CC[C@@H]1C(=O)Nc1ccc2scnc2c1 (racemic)
- IC50 [4]: 419 nM
- Activity ([1]; filed as antagonist): 3%
- CLint scaled [2]: 199 mL/min/kg
- CLint scaled [3]: 550 mL/min/kg

Compound: CC1Cc2cc(S(=O)(=O)N3CCC(C(=O)Nc4ccc5scnc5c4)CC3)ccc2O1 (racemic)
- IC50 [4]: > 10000 nM
- Activity ([1]; filed as antagonist): 16%

Compound: O=C(Nc1ccc2snnc2c1)C1CCN(S(=O)(=O)c2ccc3c(c2)CCO3)CC1
- IC50 [4]: 143 nM
- Activity ([1]; filed as antagonist): 10%
- CLint scaled [2]: 108 mL/min/kg
- CLint scaled [3]: 804 mL/min/kg

Compound: C[C@H]1CN(S(=O)(=O)c2ccc3c(c2)CCO3)CC[C@@H]1C(=O)Nc1ccc2scnc2c1 (racemic)
- IC50 [4]: 1530 nM
- Activity ([1]; filed as antagonist): 3%
- CLint scaled [2]: 79 mL/min/kg
- CLint scaled [3]: 506 mL/min/kg

Compound: CC1COc2ccc(S(=O)(=O)N3CCC(C(=O)Nc4ccc5scnc5c4)CC3)cc21 (racemic)
- IC50 [4]: 109 nM
- Activity ([1]; filed as antagonist): 3%
- CLint scaled [2]: 263 mL/min/kg
- CLint scaled [3]: 1020 mL/min/kg

Compound: Cc1nn(C)cc1S(=O)(=O)N1CCC(C(=O)Nc2ccc3scnc3c2)CC1
- Activity [15]: 35%
- Activity ([1]; filed as antagonist): 2%
- CLint scaled [2]: 5 mL/min/kg
- CLint scaled [3]: 45 mL/min/kg
- IC50 [5]: 1330 nM
- Activity [7]: 4%
- IC50 [16]: > 10000 nM
- IC50 [8]: > 10 µM
- Activity [9]: 50%
- Fu [10]: 0.03
- Fu [11]: 0.14
- fraction unbound [12]: 0.2
- clearance [17]: 11.1 mL/min/kg
- Vd [18]: 0.61 L/kg
- half-life [19]: 86 min
- efflux ratio [13]: 110
- Papp [14]: 0.374 10^-6 cm/s
